{
  "source": "patent US5091299A",
  "about": "“An enzyme electrode for use in organic solvents” (priority 1987, dated 1992)",
  "key": {"[1]": {"test_system": "Polyphenol oxidase (tyrosinase)", "assay": "Electrode specificity, response of the enzyme electrode to ten phenols", "format": "biochemical", "settings": "phenol 100 μM, single electrode, chloroform"}, "[2]": {"test_system": "Polyphenol oxidase (tyrosinase)", "assay": "Storage stability of the enzyme electrode, response to p-cresol", "settings": "p-cresol 200 μM"}, "[3]": {"test_system": "Polyphenol oxidase (tyrosinase)", "assay": "Operational stability of the enzyme electrode, sixteen consecutive p-cresol assays", "settings": "p-cresol 100 μM"}, "[4]": {"test_system": "Polyphenol oxidase (tyrosinase)", "assay": "Calibration of the polyphenol oxidase enzyme electrode with p-cresol in chloroform", "settings": "after addition of p-cresol, -275 mV vs SCE"}, "[5]": {"settings": "room temp. (20° C.), stored dry"}, "[6]": {"settings": "room temp. (20° C.), stored in CHCl3"}},
  "note": "“And” between values parts separate entries of the source, which are not always exact repeats. Equal values may be shown once.",
  "data": [
    {"smiles": "Cc1ccccc1O", "note": "[o-cresol]", "values": [
      {"measurement": "Electrode response", "setting": "[1]", "value": 0.0, "unit": "μA"},
      {"measurement": "whether the electrode responded", "setting": "[1]", "value": "responded to all the phenols tested except"}
    ]},
    {"smiles": "O=Cc1ccc(O)cc1", "note": "[p-hydroxy-benzaldehyde]", "values": [
      {"measurement": "Electrode response", "setting": "[1]", "value": 0.0, "unit": "μA"},
      {"measurement": "whether the electrode responded", "setting": "[1]", "value": "responded to all the phenols tested except"}
    ]},
    {"smiles": "Cc1ccc(O)c(O)c1", "note": "[4-methylcatechol]", "values": [
      {"measurement": "Electrode response", "setting": "[1]", "value": 6.7, "unit": "μA"}
    ]},
    {"smiles": "O=Cc1cccc(O)c1", "note": "[m-hydroxy-benzaldehyde]", "values": [
      {"measurement": "Electrode response", "setting": "[1]", "value": 0.0, "unit": "μA"},
      {"measurement": "whether the electrode responded", "setting": "[1]", "value": "responded to all the phenols tested except"}
    ]},
    {"smiles": "Oc1ccccc1O", "note": "[catechol]", "values": [
      {"measurement": "Electrode response", "setting": "[1]", "value": 8.6, "unit": "μA"}
    ]},
    {"smiles": "Cc1ccc(O)cc1", "note": "[p-cresol]", "values": [
      {"measurement": "Initial response", "setting": "[2]; 5° C., stored dry", "value": "4.3 μA and 3.7 μA"},
      {"measurement": "Response after 3 days", "setting": "[2]; 5° C., stored dry", "value": "4.4 μA and 4.5 μA"},
      {"measurement": "Response after 48 days", "setting": "[2]; 5° C., stored dry", "value": "4.7 μA and 3.5 μA"},
      {"measurement": "Initial response", "setting": "[2]; 5° C., stored in CHCl3", "value": "4.8 μA and 3.8 μA"},
      {"measurement": "Response after 3 days", "setting": "[2]; 5° C., stored in CHCl3", "value": "8.1 μA and 9.5 μA"},
      {"measurement": "Response after 48 days", "setting": "[2]; 5° C., stored in CHCl3", "value": "10.0 μA and 7.6 μA"},
      {"measurement": "decrease in response", "setting": "[2]; electrodes stored at 5° C.", "value": "no significant decrease"},
      {"measurement": "average loss of activity (of the response)", "setting": "[2]; electrodes stored at room temperature, after three days", "value": 30, "unit": "%"},
      {"measurement": "Initial response", "setting": "[2]; [5]", "value": "5.2 μA and 4.8 μA"},
      {"measurement": "Response after 3 days", "setting": "[2]; [5]", "value": "6.8 μA and 5.4 μA"},
      {"measurement": "Response after 48 days", "setting": "[2]; [5]", "value": "3.6 μA and 2.8 μA"},
      {"measurement": "Initial response", "setting": "[2]; [6]", "value": "4.0 μA and 4.2 μA"},
      {"measurement": "Response after 3 days", "setting": "[2]; [6]", "value": "7.0 μA and 7.2 μA"},
      {"measurement": "Response after 48 days", "setting": "[2]; [6]", "value": "5.5 μA and 6.5 μA"},
      {"measurement": "Electrode response after the first three assays", "setting": "[3]", "value": 4.0, "unit": "μA"},
      {"measurement": "Electrode response, first assay", "setting": "[3]; start of series of sixteen assays", "value": 1.9, "unit": "μA"},
      {"measurement": "Electrode response over the next eleven assays", "setting": "[3]; started to fall after assay fourteen", "value": "remained stable"},
      {"measurement": "time for the current increase to reach a steady value", "setting": "[4]", "value": "3 to 5", "unit": "min"},
      {"measurement": "Electrode response", "setting": "[1]", "value": 5.6, "unit": "μA"}
    ]},
    {"smiles": "Oc1ccccc1", "note": "[phenol]", "values": [
      {"measurement": "Electrode response", "setting": "[1]", "value": 6.4, "unit": "μA"}
    ]},
    {"smiles": "Oc1ccc(Cl)cc1", "note": "[4-chlorophenol]", "values": [
      {"measurement": "Electrode response", "setting": "[1]", "value": 3.1, "unit": "μA"}
    ]},
    {"smiles": "Nc1ccc(O)cc1", "note": "[p-aminophenol]", "values": [
      {"measurement": "Electrode response", "setting": "[1]", "value": 2.4, "unit": "μA"}
    ]},
    {"smiles": "Cc1cccc(O)c1", "note": "[m-cresol]", "values": [
      {"measurement": "Electrode response", "setting": "[1]", "value": 4.7, "unit": "μA"}
    ]}
  ]
}
